In patent publication US20050250801A1, “Method of treating cancer with azaspirane compositions” (priority 2003, published 2005):
Read-outs that look alike come from different tables or passages of the source.

Legend:
Assay type in all cases: cell-based
[1] = system: HOP-62; experiment: NCI in vitro SRB assay, Non-Small Cell Lung Cancer; settings: Homo sapiens, HOP-62; read-out: Log10 GI50 (converted)
Protocol: (§1) An in vitro assay which tested the ability of N,N,-diethyl-8,8-dipropyl-2-azaspiro[4,5]decane-2-propanamine dimaleate (Compound 1) to inhibit the growth of known cancer cell lines was performed by the National Cancer Institute in accordance with standard procedures. See: Lin, Z. X., Hoult, J. R., and Raman, A. Sulphorhodamine B assay for measuring proliferation of a pigmented melanocyte cell line and its application to the evaluation of crude drugs used in the treatment of vitiligo. J Ethnopharmacol. 66: 141-150, 1999. Briefly, selected tumor cell lines were cultured in media containing five different concentrations of Compound 1. After 48 hours of continuous exposure, a sulforhodamine B (SRB) assay was used to estimate cell viability or growth via optical measurements.
(§2) From the measurements, the following values were determined: 1) the concentration of Compound 1 at which a tumor cell growth inhibition of 50% (relative to control) occurs (GI50), 2) the concentration of Compound 1 at which no growth occurs (total growth inhibition, TGI), and 3) the concentration of Compound 1 at which the […] (LC 50). […] FIG. 6 illustrates, graphically, tumor cell growth as a function of Compound 1 concentration of the scanned tumor cell lines.

[2] = system: EKVX; experiment: NCI in vitro SRB assay, Non-Small Cell Lung Cancer; settings: for GI50: Homo sapiens
Protocol: as §1, §2

[3] = system: U251; experiment: NCI in vitro SRB assay, CNS Cancer; settings: for CC50 / GI50: Homo sapiens; for GI50: U-251
Protocol: as §1, §2

[4] = system: SF-295; experiment: NCI in vitro SRB assay, CNS Cancer; settings: for CC50 / GI50: Homo sapiens
Protocol: as §1, §2

[5] = system: SF-268; experiment: NCI in vitro SRB assay, CNS Cancer; settings: for CC50 / GI50: Homo sapiens
Protocol: as §1, §2

[6] = SF-295, Log10 conc -4.0 Moles/L
[7] = SF-295, Log10 conc -5.0 Moles/L
[8] = SF-295, Log10 conc -6.0 Moles/L
[9] = SF-295, Log10 conc -7.0 Moles/L
[10] = SF-295, Log10 conc -8.0 Moles/L
[11] = SF-268, Log10 conc -4.0 Moles/L
[12] = SF-268, Log10 conc -5.0 Moles/L
[13] = SF-268, Log10 conc -6.0 Moles/L
[14] = SF-268, Log10 conc -7.0 Moles/L
[15] = SF-268, Log10 conc -8.0 Moles/L

Compound: CCCC1(CCC)CCC2(CCN(CCCN(CC)CC)C2)CC1.O=C(O)/C=C\C(=O)O.O=C(O)/C=C\C(=O)O [Compound 1, N,N,-diethyl-8,8-dipropyl-2-azaspiro[4,5]decane-2-propanamine dimaleate]
- GI50 [1]: 1450 nM
- Log10 TGI [2]: −5.39
- TGI [2]: 4090 nM
- GI50 ([2]; read-out: GI50): 2110 nM
- GI50 ([2]; read-out: Log10 GI50 (converted)): 2090 nM
- Mean Optical Densities ([2]; Log10 conc -4.0 Moles/L): 0.073
- Percent Growth ([2]; Log10 conc -4.0 Moles/L): −88%
- Mean Optical Densities ([2]; Log10 conc -5.0 Moles/L): 0.202
- Percent Growth ([2]; Log10 conc -5.0 Moles/L): −67%
- Mean Optical Densities ([2]; Log10 conc -6.0 Moles/L): 1.321
- Percent Growth ([2]; Log10 conc -6.0 Moles/L): 106%
- Mean Optical Densities ([2]; Log10 conc -7.0 Moles/L): 1.336
- Percent Growth ([2]; Log10 conc -7.0 Moles/L): 108%
- Mean Optical Densities ([2]; Log10 conc -8.0 Moles/L): 1.280
- Percent Growth ([2]; Log10 conc -8.0 Moles/L): 100%
- CC50 ([3]; U-251, read-out: LC50): 4690 nM
- CC50 ([3]; U-251, read-out: Log10 LC50 (converted)): 4680 nM
- GI50 ([3]; U251, read-out: GI50): 1030 nM
- GI50 ([3]; U251, read-out: Log10 GI50 (converted)): 1020 nM
- Log10 TGI ([3]; U251): −5.66
- TGI ([3]; U251): 2200 nM
- Mean Optical Densities ([3]; U251, Log10 conc -4.0 Moles/L): −0.042
- Percent Growth ([3]; U251, Log10 conc -4.0 Moles/L): −100%
- Mean Optical Densities ([3]; U251, Log10 conc -5.0 Moles/L): −0.049
- Percent Growth ([3]; U251, Log10 conc -5.0 Moles/L): −100%
- Mean Optical Densities ([3]; U251, Log10 conc -6.0 Moles/L): 0.602
- Percent Growth ([3]; U251, Log10 conc -6.0 Moles/L): 52%
- Mean Optical Densities ([3]; U251, Log10 conc -7.0 Moles/L): 0.864
- Percent Growth ([3]; U251, Log10 conc -7.0 Moles/L): 88%
- Mean Optical Densities ([3]; U251, Log10 conc -8.0 Moles/L): 0.885
- Percent Growth ([3]; U251, Log10 conc -8.0 Moles/L): 90%
- CC50 ([4]; SF-295, read-out: LC50): 8210 nM
- CC50 ([4]; SF-295, read-out: Log10 LC50 (converted)): 8130 nM
- GI50 ([4]; SF-295, read-out: GI50): 1930 nM
- GI50 ([4]; SF-295, read-out: Log10 GI50 (converted)): 1950 nM
- Log10 TGI ([4]; SF-295): −5.40
- TGI ([4]; SF-295): 3980 nM
- Mean Optical Densities [4, 6]: 0.239
- Percent Growth [4, 6]: −57%
- Mean Optical Densities [4, 7]: 0.202
- Percent Growth [4, 7]: −64%
- Mean Optical Densities [4, 8]: 1.520
- Percent Growth [4, 8]: 96%
- Mean Optical Densities [4, 9]: 1.653
- Percent Growth [4, 9]: 109%
- Mean Optical Densities [4, 10]: 1.614
- Percent Growth [4, 10]: 105%
- CC50 ([5]; SF-268, read-out: LC50): 5800 nM
- CC50 ([5]; SF-268, read-out: Log10 LC50 (converted)): 5750 nM
- GI50 ([5]; SF-268, read-out: GI50): 1430 nM
- GI50 ([5]; SF-268, read-out: Log10 GI50 (converted)): 1450 nM
- Log10 TGI ([5]; SF-268): −5.54
- TGI ([5]; SF-268): 2880 nM
- Mean Optical Densities [5, 11]: 0.058
- Percent Growth [5, 11]: −80%
- Mean Optical Densities [5, 12]: 0.033
- Percent Growth [5, 12]: −89%
- Mean Optical Densities [5, 13]: 1.004
- Percent Growth [5, 13]: 75%
- Mean Optical Densities [5, 14]: 1.181
- Percent Growth [5, 14]: 94%
- Mean Optical Densities [5, 15]: 1.193
- Percent Growth [5, 15]: 95%
